In patent publication US7314616B1, “Additive containing an anti-fungal amount of a salt of formic acid” (priority 2003, dated 2008):

The molecules below were run on fungi spores (assay: inhibitory effect on the growth of fungi spores).
Type: cell-based

| Structure (SMILES) | inhibitory effect on the growth of fungi spores |
| --- | --- |
| COC1=CC(=O)O[C@@H](CCc2ccc3c(c2)OCO3)C1 [dihydromethysticin] | exhibit inhibitory effect |
| COC1=CC(=O)O[C@@H](CCc2ccccc2)C1 [diydrokawain] | exhibit inhibitory effect |
| COC1=CC(=O)O[C@@H](/C=C/c2ccccc2)C1 [kawain] | exhibit inhibitory effect |
